Laboratory results: patent US10189803B2, “Synthesis of therapeutic and diagnostic drugs centered on regioselective and stereoselective ring opening of aziridinium ions” (ILLINOIS INSTITUTE OF TECHNOLOGY, priority 2008, dated 2019)

Assays:
Hela cells = experiment: Antiproliferative activity, MTS assay, HeLa cells; assay type: cell-based, Human; conditions: Homo sapiens; 72 h incubation, MTS
Method: (§1) Cell culture Human cervix HeLa cell line was obtained from ATCC (Rockville, Md.) and cultured in minimum essential medium (MEM) with L-glutamine (2 mM), Earle's BSS and sodium bicarbonate (1.5 g/L), supplemented with 10% fetal bovine serum (FBS), non-essential amino acids (0.1 mM), sodium pyruvate (1 mM) and antibiotic/antimycotic solution in a humidified atmosphere with 5% CO2 at 37° C. […] Lung fibroblast MRC-5 cell line was obtained from ATCC (Rockville, Md.) and cultured in ATCC formulated EMEM, supplemented with 10% fetal bovine serum (FBS) in a humidified atmosphere with 5% CO2 at 37° C.
(§2) Antiproliferative Activity. Cells were seeded onto 96-well plate at density of 2,000 cells for Hela cells or 5,000 cells for HT29 cells or 5,000 cells for MRC-5 per well in 0.1 mL complete medium and allowed to attach for 24 h. Varying concentrations of the test compounds in the final volume of 0.1 mL complete medium were then added in at least five series dilutions and incubated for 72 h. To measure cell proliferation, the Cell Titer 96 aqueous nonreactive cell proliferation assay (Promega Life Sciences, Madison, Wis.) was used according to the manufacturer's instructions. Briefly, MTS (2 mg/mL) and PMS (0.92 mg/ml) were mixed in a ratio of 20:1. An aliquot (20 μL) of the MTS/PMS mixture was added into each well, and the plate was incubated for 3 h at 37° C. Optical absorbance at 490 nm was then recorded with an enzyme-linked immunosorbent assay (ELISA) microtiter plate reader (Biotek). Each experiment was done at least in triplicate. Antiproliferative activity of the test compounds was expressed as the fraction of optical densities of treated the cells relative to the untreated solvent controls.^31 The data were plotted in GraphPad Prizm 3.0. Nonlinear regression analysis was used to determine IC50 values.
(§3) Cell culture. Human cervix HeLa cell line was obtained from ATCC (Rockville, Md.) and cultured in minimum essential medium (MEM) with L-glutamine (2 mM), Earle's BSS and sodium bicarbonate (1.5 g/L), supplemented with 10% fetal bovine serum (FBS), non-essential amino acids (0.1 mM), sodium pyruvate (1 mM) and antibiotic/antimycotic solution in a humidified atmosphere with 5% CO2 at 37° C.
as §2, with “activity.” for “Activity.”, “cells” for “cells or 5,000 cells for MRC-5”, “controls.” for “controls.^31”

HT29 cells = experiment: Antiproliferative activity, MTS assay, HT29 cells; assay type: cell-based, Human; conditions: Homo sapiens, HT-29, 72 h incubation
Method: as §1, §2, §3
as §2, with “activity.” for “Activity.”, “cells” for “cells or 5,000 cells for MRC-5”, “controls.” for “controls.^31”

[1] = TEM measurement of self-assembled micelles; assay type: physicochemical; conditions: aqueous solution
Excerpt: Amphifacial cholic acid is a good targeting moiety, and its conjugation to MR contrast agent is expected to form helical globular aggregates with a favorable pharmacokinetic and relaxivity profile. In FIG. 41, cholic acid was converted to an activated amide 1, which was further reacted with a functionalized NE3TA (2) containing an amino group to provide Compound 3. The t-butyl group of Compound 3 was removed by treatment with 4M HCl in 1,4-dioxane to provide CA-NE3TA (4). […] The Gd(III) complex of CA-NE3TA was prepared as described above. Gd(CA-NE3TA) self-assembles into nano-sized micells as evidenced by TEM measurement (˜10 nm, FIG. 24). […] Aggregation of Gd(CA-NE3TA) as evidenced by TEM images is proposed to result from heating during the complexation reaction and/or gadolinium induced cross linking. T1 relaxivity of Gd(CA-NE3TA) in aqueous solution (0.2 mM) was measured to 10.85 mM^−1 s^−1. […] This increase in relaxivity may be a result of slower molecular rotation due to aggregation of the complex as evidenced by the TEM image.
TEM measurement. Stock solutions of compounds CA-NE3TA and Gd(CA-NE3TA) were prepared in 18 MΩ H2O and diluted to the final concentrations of CA-NE3TA (10 μM, pH=5) and Gd(CA-NE3TA) (100 μM or 10 μM, pH=7). In triplicate, a 5 μL aliquot of CA-NE3TA solution was placed on a gold-coated grid (300 mesh, formvar support film, Cat #FF300-Au, Electron Microscopy Sciences, PA). The sample on the grid was air-dried for 5-10 min after each deposition. The grid was air-dried overnight, transferred into a desiccator, and further dried in vacuo for 1.5 days. The sample of Gd(CA-NE3TA) (10 μM) was prepared as described above. […]
TEM images of CDCA-NE3TA indicate that the hydrophobic bile acid conjugated to NE3TA forms discrete semi-square micelles in nanometer size (˜15-60 nm, FIG. 29). […] Aza cholic acid 10 was prepared starting from the readily available cholic acid according to the literature. […]

[2] = T1 relaxivity of Gd(III) complexes (Bruker mq60 NMR analyzer); assay type: physicochemical; conditions: aqueous solution (0.2 mM)
Method: Gd(NE3TA) and Gd(NE3TA-Bn) were synthesized by reacting GdCl3 with NE3TA and NE3TA-Bn, respectively. NE3TA or NE3TA-Bn were mixed with GdCl3 in a molar ratio of 1 to 0.9, and the resulting mixture at pH 7 was heated to 90° C. and stirred until no free Gd(III) ions were detected using an ArsenazoIII (AAIII) assay. Relaxivity of the aqueous […] complexes (pH 7) was measured on a Bruker MQ60 NMR analyzer, and the concentration of the Gd(III) complexes was measured by ICP-MS. […] NE3TA was successfully conjugated with the most common bile acid, cholic acid (FIG. 41).
(§4) Relaxivity Measurements. Relaxivity measurements were acquired by taking the slope of a plot of 1/T1 (s^−1) versus concentration (mM). The longitudinal water proton relaxation times (T1) were determined using a Bruker mq60 NMR (Bruker Canada, Milton, ON, Canada) analyzer operating at 59.97 MHz and 37° C. The agent was added to Millipore water and serially diluted by 0.5 to give a series of 5 concentrations (500 μL total volume) for each relaxivity trial. The T1 was determined using an inversion recovery pulse sequence with 10 different pulse separations per sample, 4 repetitions per echo time, phase cycling, and a recycle delay that is ≥5 times the T1 of each given sample. All curves were fit using a monoexponential curve fitting formula.
Relaxivity of the aqueous Gd(III) complexes (˜pH 7) were measured on a Bruker MQ60 NMR analyzer, and the concentration of the Gd(III) complexes were measured by ICP-MS. […] As mentioned above, the on and off binding to Gd(III) of one of the pendant coordinates would have resulted enhanced relaxivity of Gd(C-NETA) compared to Gd(C-DOTA). Among the evaluated Gd(III) complexes, Gd(C-NE3TA) gives the highest T1 relaxivity at 60 MHz, probably due to increase in q. The relaxation rates for the Gd(III) chelates are dominated by the inner-sphere dipolar coupling between the coordinated water molecule and the paramagnetic Gd(III). The measured relaxivities arise from the exchange between the coordinated water molecule and the surrounding water molecules in solution. […] No indication of Gd(III) dissociation is evident from the relaxivity data, which is in agreement with the in vitro serum stability and in vivo biodistribution studies.
as §4, with “The T1 relaxivity was determined” for “The T1 was determined”

Compound: CC(CCC(=O)Nc1ccc(CC(CN2CCN(CC(=O)O)CCN(CC(=O)O)CC2)NCC(=O)O)cc1)C1CCC2C3C(O)CC4CC(O)CCC4(C)C3CC(O)C12C (centres unmarked) [CA-NE3TA, [4-Carboxymethyl-7-(2-(carboxymethyl-amino)-3-{4-[4-(3,7,12-trihydroxy-10,13-dimethyl-hexadecahydro-cyclopenta[a]phenanthren-17-yl)-pentanoylamino]-phenyl}-propyl)-[1,4,7]triazonan-1-yl]-acetic acid]
- IC50 (Hela cells): 24 ± 2.7 µM
- IC50 (HT29 cells): 8.3 ± 2.4 µM
- micelle size (TEM) [1]: 10-50 nm

Compound: CC(CCC(=O)Nc1ccc(CC(CN2CCN(CC(=O)O)CCN(CC(=O)O)CC2)NCC(=O)O)cc1)C1CCC2C3C(O)CC4CC(O)CCC4(C)C3CCC12C (centres unmarked) [CDCA-NE3TA, [4-Carboxymethyl-7-(2-(carboxymethyl-amino)-3-{4-[4-(3,7-dihydroxy-10,13-dimethylhexadecahydro-cyclopenta[a]phenanthren-17-yl)-pentanoylamino]-phenyl}-propyl)-[1,4,7]triazonan-1-yl]-acetic acid]
- IC50 (Hela cells): 24.6 ± 1 µM
- IC50 (HT29 cells): 15.5 ± 3.2 µM
- micelle size (TEM) [1]: 15-60 nm

Compound: CC(CCC(=O)Nc1ccc(CC(CN2CCN(CC(=O)O)CCN(CC(=O)O)CC2)NCC(=O)O)cc1)C1CCC2C3C(O)CC4CC(O)CCC4(C)C3CC(O)C12C.[Gd] (centres unmarked) [Gd(CA-NE3TA)]
- T1 relaxivity [2]: 10.85 mM⁻¹ s⁻¹
- micelle size (TEM) [1]: ~10 nm
